The text below walks through data of patent US7420051B2, “Synthetic process for the manufacture of an ecteinaschidin compound” (Pharma Mar, S.A., priority 2000, dated 2008).

Common to all, as to type: cell-based
In assay [1] the test system is A-549 (monolayer culture of a human lung carcinoma). Briefly: Cytotoxic activity screening, A-549 cells. The following applies: three days of incubation, Crystal Violet, approximate IC50. The method, then: (§1) Cell Cultures. Cells were maintained in logarithmic phase of growth in Eagle's Minimum Essential Medium, with Earle's Balanced Salts, with 2.0 mM L-glutamine, with non-essential amino acids, without sodium bicarbonate (EMEM/neaa); supplemented with 10% Fetal Calf Serum (FCS), 10^−2 M sodium bicarbonate and 0.1 g/l penicillin-G+streptomycin sulfate.
(§2) A simple screening procedure has been carried out to determine and compare the antitumour activity of these compounds, using an adapted form of the method described by Bergeron et al (1984). The tumour cell line employed have been P-388 (suspension culture of a lymphoid neoplasm from DBA/2 mouse), A-549 (monolayer culture of a human lung carcinoma), HT-29 (monolayer culture of a human colon carcinoma) and MEL-28 (monolayer culture of a human melanoma).
(§3) A-549, HT-29 and MEL-28 were seeded into 16 mm wells at 2×10^4 cells per well in 1 ml aliquots of MEM 10FCS containing the indicated concentration of drug. A separate set of cultures without drug was seeded as control growth to ensure that cells remained in exponential phase of growth. All determinations were carried out in duplicate. After three days of incubation at 37° C., 10% CO2 in a 98% humid atmosphere, the wells were stained with 0.1% Crystal Violet. An approximately IC50 was determined by comparing the growth in wells with drug to the growth in wells control.

Assay [2] concerns P-388 (suspension culture of a lymphoid neoplasm from DBA/2 mouse). Briefly: Cytotoxic activity screening, P-388 cells. The following applies: three days of incubation, approximate IC50. The method, then: as §1, §2
P-388 cell were seeded into 16 mm wells at 1×10^4 cells per well in 1 ml aliquots of MEM 5FCS containing the indicated concentration of drug. A separate set of cultures without drug was seeded as control growth to ensure that cells remained in exponential phase of growth. All determinations were carried out in duplicate.

The next assay concerns CV-1. Briefly: Cytotoxic activity screening, CV-1 cells. The note with it: Cercopithecidae.
In assay [3] the test system is HT-29 (monolayer culture of a human colon carcinoma). Briefly: Cytotoxic activity screening, HT-29 cells. The following applies: three days of incubation, Crystal Violet, approximate IC50. Here is the method: as §1, §2, §3
Assay [4] deals with MEL-28 (monolayer culture of a human melanoma). Briefly: Cytotoxic activity screening, MEL-28 cells. The following applies: SK-MEL-28, 72 h, three days of incubation, Crystal Violet, approximate IC50. The method, then: as §1, §2, §3
The subject of the next assay is DU-145. Briefly: Cytotoxic activity screening, DU-145 cells.
Setting [5] is: Homo sapiens, DU-145, DU-145 cells.

The structures appear in SMILES notation.

A word on the IC50: it is the midpoint of a concentration-inhibition curve. For `COC1=C(C)C(=O)C2=C(C1=O)[C@H](CNC(=O)C(C)N)N1C(C2)[C@H]2c3c(cc(C)c(OC)c3O)C[C@@H]([C@@H]1C#N)N2C` (stereo partly shown), the IC50 was 0.018 µM in assay [1] (Homo sapiens, A549, 72 h); 0.009 µM in assay [2] (Mus musculus, P388, 72 h); 0.023 µM in the assay with CV-1; 0.018 µM in assay [3] (Homo sapiens, HT-29, 72 h); 0.018 µM in assay [4].

On to `C=CCOc1c(C)c2c(c3c1CC1[C@H]4c5c(cc(C)c(OC)c5O)C[C@@H]([C@H](C#N)N1[C@H]3CNC(=O)OCC(Cl)(Cl)Cl)N4C)OCO2` (stereo partly shown), for which the concentration for half-maximal inhibition (IC50) in the assay with DU-145 (setting [5]) and in the assay on CV-1 was 0.014 µM in each case.

Take `C=CCOc1c(C)c2c(c3c1CC1[C@H]4c5c(cc(C)c(OC)c5OCOC)C[C@@H]([C@H](C#N)N1[C@H]3CNC(=O)OCC(Cl)(Cl)Cl)N4C)OCO2` (stereo partly shown): the IC50 in the assay with DU-145 (setting [5]) and with CV-1 was 0.13 µM in each case.

On to `COc1c(C)cc2c(c1O)[C@@H]1C3Cc4c(O)c(C)c5c(c4[C@H](CN4C(=O)c6ccccc6C4=O)N3[C@@H](C#N)[C@H](C2)N1C)OCO5` (stereo partly shown), for which the concentration for half-maximal inhibition (IC50) in assay [1] (Homo sapiens, A549, 72 h) came to 0.001 µM; in the assay with DU-145 (setting [5]), 0.001 µM; in assay [2] (Mus musculus, P388, 72 h), 0.001 µM; with CV-1, 0.001 µM; in assay [3] (Homo sapiens, HT-29, 72 h) it was 0.001 µM; in assay [4] it was 0.001 µM.

For `COC1=C(C)C(=O)C2=C(C1=O)[C@H](CNC(=O)C(C)N=CSNc1ccccc1)N1C(C2)[C@H]2c3c(cc(C)c(OC)c3O)C[C@@H]([C@@H]1C#N)N2C` (stereo partly shown), the half-inhibitory concentration (IC50) in assay [1] (Homo sapiens, A549, 72 h) was 0.015 µM; in assay [2] (Mus musculus, P388, 72 h), 0.015 µM; in the assay on CV-1, 0.018 µM; in assay [3] (Homo sapiens, HT-29, 72 h), 0.015 µM; in assay [4] it was 0.015 µM.

For the compound `COCOc1c(OC)c(C)cc2c1[C@@H]1C3CC4=C(C(=O)C(OC)=C(C)C4=O)[C@H](CNC(C)=O)N3[C@@H](C#N)[C@H](C2)N1C` (stereo partly shown), the IC50 in the assay with CV-1 is 0.22 µM.

Consider `COCOc1c(OC)c(C)cc2c1[C@@H]1C3CC4=C(C(=O)C(O)=C(C)C4=O)[C@H](CNC(C)=O)N3[C@@H](C#N)[C@H](C2)N1C` (stereo partly shown), for which the half-inhibitory concentration (IC50) was greater than 18.1 µM in assay [1] (Homo sapiens, A549, 72 h); greater than 9 µM in assay [2] (Mus musculus, P388, 72 h); greater than 18.1 µM with CV-1; greater than 18.1 µM in assay [3] (Homo sapiens, HT-29, 72 h); greater than 18.1 µM in assay [4].

On to `COc1c(C)cc2c(c1O)[C@@H]1C3Cc4c(OC(C)=O)c(C)c5c(c4[C@H](CNC(=O)/C=C/c4cccc(C(F)(F)F)c4)N3[C@@H](O)[C@H](C2)N1C)OCO5` (stereo partly shown), for which the IC50 in assay [1] (Homo sapiens, A549, 72 h) was determined as 0.0001 µM; in the assay on DU-145 (setting [5]) it was 0.0001 µM; in assay [2] (Mus musculus, P388, 72 h), 0.0001 µM; in assay [3] (Homo sapiens, HT-29, 72 h), 0.0001 µM; in assay [4] it was 0.0001 µM.

On to `COc1c(C)cc2c(c1O)[C@@H]1C3Cc4c(OC(C)=O)c(C)c5c(c4[C@H](CNC(=O)[C@H](C)NC(=O)C(F)(F)F)N3[C@@H](O)[C@H](C2)N1C)OCO5` (stereo partly shown), for which the IC50 came to 0.0001 µM in assay [1] (Homo sapiens, A549, 72 h); 0.0001 µM in the assay on DU-145 (setting [5]); 0.0001 µM in assay [2] (Mus musculus, P388, 72 h); 0.0001 µM in assay [3] (Homo sapiens, HT-29, 72 h); 0.0001 µM in assay [4].

For `C=CCOc1c(C)c2c(c3c1CC1[C@H]4c5c(cc(C)c(OC)c5OCOC)C[C@@H]([C@H](C#N)N1[C@H]3CN)N4C)OCO2` (stereo partly shown) [drawing 80], the concentration for half-maximal inhibition (IC50) was found to be 0.18 µM in assay [2] (Mus musculus, P388, 72 h) and 1.8 µM in the assay on CV-1.

In the case of `C=CCOc1c(C)c2c(c3c1CC1[C@H]4c5c(cc(C)c(OC)c5OCOC)C[C@@H]([C@H](C#N)N1[C@H]3CN)N4C)OCO2` (stereo partly shown) [drawing 81], the IC50 (in assay [1]; in the assay on DU-145 (DU-145 cells); in assay [2]; in assay [3]; in assay [4]) was 0.2 µM in each case.
